This is an account of results in patent US20090053741A1 (priority 2005, published 2009).

The structures appear in SMILES notation.

One assay concerns nitric oxide synthase. Conditions: cited from earlier work; for inhibition of NOS (in words): background statement.
In a further assay the test system is DDAH. The assay can be described thus: ADMA binding to DDAH (initial studies; equilibrium dialysis and calorimetry).
The target in a further assay is T1, iNOS (Mus musculus, UniProt P29477).
T1 sequence (P29477 1-1144): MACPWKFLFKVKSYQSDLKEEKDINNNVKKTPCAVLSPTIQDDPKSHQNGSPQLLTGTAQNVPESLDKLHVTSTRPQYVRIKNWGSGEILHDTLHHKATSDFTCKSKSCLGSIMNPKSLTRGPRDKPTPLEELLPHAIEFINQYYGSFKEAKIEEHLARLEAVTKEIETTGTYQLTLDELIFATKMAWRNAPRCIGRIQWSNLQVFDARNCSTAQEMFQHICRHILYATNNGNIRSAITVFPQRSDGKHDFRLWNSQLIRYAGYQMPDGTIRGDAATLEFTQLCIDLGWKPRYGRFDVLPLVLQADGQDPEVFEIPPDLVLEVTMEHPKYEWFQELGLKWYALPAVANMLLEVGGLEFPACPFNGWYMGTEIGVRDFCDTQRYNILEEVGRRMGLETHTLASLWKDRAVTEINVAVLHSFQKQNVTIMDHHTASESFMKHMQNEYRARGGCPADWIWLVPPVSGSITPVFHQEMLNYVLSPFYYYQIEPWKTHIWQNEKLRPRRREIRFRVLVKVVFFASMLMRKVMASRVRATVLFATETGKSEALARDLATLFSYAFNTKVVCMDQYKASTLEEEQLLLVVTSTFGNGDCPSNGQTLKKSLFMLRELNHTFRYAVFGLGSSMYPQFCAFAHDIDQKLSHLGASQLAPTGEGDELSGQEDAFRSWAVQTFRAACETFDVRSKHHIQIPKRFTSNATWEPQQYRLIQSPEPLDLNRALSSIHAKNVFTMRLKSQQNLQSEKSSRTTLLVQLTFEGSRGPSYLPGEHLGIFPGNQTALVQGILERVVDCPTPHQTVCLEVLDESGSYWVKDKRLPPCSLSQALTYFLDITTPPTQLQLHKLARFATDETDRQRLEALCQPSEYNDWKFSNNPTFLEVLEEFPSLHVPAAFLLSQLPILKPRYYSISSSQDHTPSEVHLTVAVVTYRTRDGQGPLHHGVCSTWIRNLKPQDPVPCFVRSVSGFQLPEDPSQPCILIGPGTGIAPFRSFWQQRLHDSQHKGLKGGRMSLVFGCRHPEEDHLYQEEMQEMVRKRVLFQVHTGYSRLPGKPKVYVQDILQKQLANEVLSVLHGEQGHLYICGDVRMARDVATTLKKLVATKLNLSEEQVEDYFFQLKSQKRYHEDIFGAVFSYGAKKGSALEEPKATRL
The assay can be described thus: [14C]L-NMMA binding to lysates of cytokine-stimulated J774 cells (iNOS lysate), filter assay. The conditions noted are these: excess 1000-fold L-NMMA, FIG. 1, preliminary. Here is the method:
A=J774 stimulated, B=J774 stimulated+L-NMMA, C=control and D=control+L-NMMA.
Macrophages (J774 cells) were stimulated with a cytokine cocktail (LPS/IFN/TNF) for 24 h, to induce iNOS expression, and cell lysates were collected. […] Low molecular weight molecules were removed from lysates using 30000 MW cut-off filters. Lysates were incubated on 3000 MW filters with [^14C]L-NMMA for 15 min ([…] L-NMMA), washed 3× with cold TRIS buffer and filters counted.

The target in assay [1] is T2, bsNOS fragment (bacillus subtilis nitric oxide synthase oxygenase domain) (Bacillus subtilis, UniProt O34453).
T2 construct: made in house
The assay can be described thus: bsNOS binding to [14C]L-NMMA, PVDF filters with rapid washes. The conditions noted are these: L-NMMA 1 mM, FIG. 3. Here is the method:
(§1) A=Control and B=excess L-NMMA.
A modified method previously described for binding [3H]nitroarginine to mammalian NOS was used to ensure rapid washes of the bsNOS fragment complexes and ligand to reduce time for dissociation (Liu Q and Gross S S, Methods Enzymol. 1996; 268:311-24). [^14C]L-NMMA ([…] −20000 counts total) was incubated with the bsNOS fragment ([…]) in assay buffer containing: 50 mM Tris pH 7.6; 50 uM BH4, 0.5 mM DTT. Reactants were incubated for 15 min at room temperature and NOS-bound [^14C]L-NMMA was separated from free [^14C]L-NMMA using PVDF filters and 3×1 ml rapid washes in cold Tris pH 7.6. Background was determined by the addition of 1 mM L-NMMA to bsNOS in assay buffer. Filters were added to 5 ml scintillation cocktail and counted in scintillation counter (Beckmann).

Assay [2] concerns the target T2, bsNOS fragment (bacillus subtilis nitric oxide synthase oxygenase domain). The assay can be described thus: [14C]L-NMMA binding to bsNOS fragment on 30000 MW cut off filters. Conditions: 1000-fold excess unlabelled L-NMMA, FIG. 2, preliminary. Here is the method:
as §1
A bacillus subtilis nitric oxide synthase oxygenase domain (“fragment”) was PCR amplified from genomic DNA with Nde1 and BamH1 sites added at the 5′ and 3′ ends respectively and cloned into pET15b vector. The bsNOS fragment corresponded to SEQ ID NO: 2 and was purified as previously described (Pant et al., Biochemistry; 2002; 41:11071-11079).
[^14C]L-NMMA (3.75 nmol) was incubated with the bsNOS fragment ([…]) on 30000 MW cut off filters in the presence and absence (Control) of 1000-fold excess unlabelled L-NMMA.

T2 sequence (O34453 other isoform, or with tags, fused parts or gaps with the stated changes): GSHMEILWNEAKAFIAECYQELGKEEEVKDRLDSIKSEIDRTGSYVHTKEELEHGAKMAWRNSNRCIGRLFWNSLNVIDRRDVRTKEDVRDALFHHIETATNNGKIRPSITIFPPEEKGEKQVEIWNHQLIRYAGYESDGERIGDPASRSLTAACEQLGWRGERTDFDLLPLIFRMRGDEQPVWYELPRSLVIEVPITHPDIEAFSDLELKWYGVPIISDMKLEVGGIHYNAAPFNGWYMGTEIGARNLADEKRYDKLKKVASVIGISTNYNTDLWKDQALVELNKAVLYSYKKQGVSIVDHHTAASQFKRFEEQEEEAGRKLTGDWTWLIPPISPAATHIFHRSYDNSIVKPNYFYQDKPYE
Description for DDAH: Secondly, the researchers tried to improve the binding of ADMA to DDAH through mutagenesis. Three more mutations were generated in E114 and around this residue. These were E114D, E114D+A115G, L18H (residue in the loop) and P80A. […] Other mutations around the active site were also generated: L161F, G116A, G116V and G116T.
Thirdly, the researchers tried to calculate a Kd for ADMA of DDAH using nuclear magnetic resonance imaging using the C249S or H162A mutant. […] Fourthly, the researchers tried a fluorophore (fluoresceine 5 maleimide or acrylodan) approach to measure the Kd for ADMA. […] Finally, the researchers generated four mutations with tryptophan: V15W and D16W (in the loop) as well as F58W and E90W (close to the active site). These four residues move in the NMR spectrum when inhibitors bind to the protein.

As to `CN(C)C(=N)NCCCC(N)C(=O)O` (stereo not drawn) [ADMA, asymmetric dimethylarginine], the “inhibition of NOS (in words)” value in the assay on nitric oxide synthase is reported as “equipotent”. For the same compound, in the assay on DDAH (inactive mutations C249S, H162A, E114Q, very high concentrations of ADMA (10 mM)), the “saturation of DDAH in calorimetry experiments” value is “saturation was never reached”. The “concentrations necessary to get binding to DDAH” value in the assay with DDAH (initial studies) was “millimolar concentrations”.
Regarding `CNC(=N)NCCC[C@H](N)C(=O)O` [L-NMMA, N^G-monomethyl-L-arginine], the “competition of [14C]L-NMMA binding by unlabelled ligand” value (on iNOS; in assay [2]) was “competed out” in each case. Further, the “inhibition of NOS (in words)” value with nitric oxide synthase is “equipotent”. Besides, the “[14C]L-NMMA binding in the presence of unlabelled ligand” value in assay [1] is recorded as “reduced to background”.
In the case of `CN=C(NC)NCCC[C@H](N)C(=O)O` [SDMA, symmetric dimethylarginine], the “inhibition of NOS (in words)” value in the assay on nitric oxide synthase is on record as “does not inhibit NOS”.
Take `N=C(N)NCCC[C@H](N)C(=O)O` [arginine]: the Km in the assay on nitric oxide synthase (nitric oxide synthase, the 3 enzymes, read-out: Km for arginine) was 7 to 19 µM.

The Km is the concentration of substrate that gives half-maximal velocity.
